Measurements from patent US11548884B2, “Cyclic amidine compounds for the treatment of autoimmune disease” (Hoffmann-La Roche Inc., priority 2018, dated 2023).

What follows are compounds tested against T1, human TLR9 (Homo sapiens, UniProt Q9NR96) (assay: HEK293-Blue-hTLR-9 cells assay (SEAP reporter, ODN2006 stimulation)). Conditions: HEK293-Blue-hTLR9 cells, ODN2006 ligand, 20 h incubation.
T1 sequence (Q9NR96 26-1032): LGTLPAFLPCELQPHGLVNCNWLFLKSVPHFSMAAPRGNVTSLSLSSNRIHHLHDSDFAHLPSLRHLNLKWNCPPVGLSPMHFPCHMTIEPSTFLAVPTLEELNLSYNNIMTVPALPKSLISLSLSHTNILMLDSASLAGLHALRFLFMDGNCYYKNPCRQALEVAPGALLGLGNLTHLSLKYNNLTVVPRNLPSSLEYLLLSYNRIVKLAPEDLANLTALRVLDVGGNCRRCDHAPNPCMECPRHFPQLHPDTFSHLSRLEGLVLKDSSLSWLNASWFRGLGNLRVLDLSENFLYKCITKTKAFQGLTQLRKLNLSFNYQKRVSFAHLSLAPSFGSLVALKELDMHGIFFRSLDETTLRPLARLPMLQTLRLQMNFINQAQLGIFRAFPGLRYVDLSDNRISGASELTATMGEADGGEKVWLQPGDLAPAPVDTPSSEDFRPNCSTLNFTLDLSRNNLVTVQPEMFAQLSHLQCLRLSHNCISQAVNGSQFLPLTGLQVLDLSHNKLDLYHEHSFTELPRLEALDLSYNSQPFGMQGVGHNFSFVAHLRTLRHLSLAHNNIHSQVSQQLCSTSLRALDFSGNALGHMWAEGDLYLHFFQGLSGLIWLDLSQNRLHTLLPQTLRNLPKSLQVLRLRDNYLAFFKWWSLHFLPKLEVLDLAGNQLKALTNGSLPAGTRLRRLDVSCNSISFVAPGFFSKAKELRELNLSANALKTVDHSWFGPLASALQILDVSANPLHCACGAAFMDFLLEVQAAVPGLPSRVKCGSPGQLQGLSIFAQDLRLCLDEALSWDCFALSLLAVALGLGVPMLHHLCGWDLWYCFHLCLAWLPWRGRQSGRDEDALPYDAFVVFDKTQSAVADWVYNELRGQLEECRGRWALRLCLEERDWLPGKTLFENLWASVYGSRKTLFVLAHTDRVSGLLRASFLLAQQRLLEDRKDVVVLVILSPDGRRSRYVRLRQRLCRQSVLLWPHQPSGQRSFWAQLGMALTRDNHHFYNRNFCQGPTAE
Format: cell-based
Method: The following tests were carried out in order to determine the activity of the compounds of formula (I) in HEK293-Blue-hTLR-7/8/9 cells assay.
HEK293-Blue-hTLR-9 Cells Assay:
A stable HEK293-Blue-hTLR-9 cell line was purchased from InvivoGen (Cat. #: hkb-htlr9, San Diego, Calif., USA). These cells were originally designed for studying the stimulation of human TLR9 by monitoring the activation of NF-κB. A SEAP (secreted embryonic alkaline phosphatase) reporter gene was placed under the control of the IFN-β minimal promoter fused to five NF-κB and AP-1-binding sites. The SEAP was induced by activating NF-κB and AP-1 via stimulating HEK-Blue hTLR9 cells with TLR9 ligands. Therefore the reporter expression was declined by TLR9 antagonist under the stimulation of a ligand, such as ODN2006 (Cat. #: tlrl-2006-1, Invivogen, San Diego, Calif., USA), for incubation of 20 h. The cell culture supernatant SEAP reporter activity was determined using QUANTI-Blue™ kit (Cat. #: rep-qb1, Invivogen, San Diego, Calif., USA) at a wavelength of 640 nm, a detection medium that turns purple or blue in the presence of alkaline phosphatase.
HEK293-Blue-hTLR9 cells were incubated at a density of 250,000˜450,000 cells/mL in a volume of 170 μL in a 96-well plate in Dulbecco's Modified Eagle's medium (DMEM) containing 4.5 g/L glucose, 50 U/mL penicillin, […], 2 mM L-glutamine, 10% (v/v) heat-inactivated fetal bovine serum with addition of 20 μL test compound in a serial dilution in the presence of final DMSO at 1% and 10 μL of 20 uM ODN2006 in above DMEM, perform incubation under 37° C. in a CO2 incubator for 20 h. Then 20 μL of the supernatant from each well was incubated with 180 μL Quanti-blue substrate solution at 37° C. for 2 h and the absorbance was read at 620˜655 nm using a spectrophotometer. The signalling pathway that TLR9 activation leads to downstream NF-κB activation has been widely accepted, and therefore similar reporter assay was modified for evaluating TLR9 antagonist.

SMILES	IC50
C[C@@H]1CN(c2ccc(C#N)c3ncccc23)C[C@H](C2=Nc3ccc(N4CCNCC4)cc3CN2)O1 [Example 7, 5-[(2R,6R)-2-methyl-6-(6-piperazin-1-yl-3,4-dihydroquinazolin-2-yl)morpholin-4-yl]quinoline-8-carbonitrile]	0.102 µM
C[C@@H]1CN(c2ccc(C#N)c3ncccc23)C[C@H](C2=Nc3cc(N4CCNCC4)ccc3CN2)O1 [Example 8, 5-[(2R,6R)-2-methyl-6-(7-piperazin-1-yl-3,4-dihydroquinazolin-2-yl)morpholin-4-yl]quinoline-8-carbonitrile]	0.065 µM
C[C@@H]1CN(c2ccc(C#N)c3ncccc23)C[C@H](C2=Nc3c(cccc3N3CCNCC3)CN2)O1 [Example 9, 5-[(2R,6R)-2-methyl-6-(8-piperazin-1-yl-3,4-dihydroquinazolin-2-yl)morpholin-4-yl]quinoline-8-carbonitrile]	0.097 µM
C[C@@H]1CN(c2ccc(C#N)c3ncccc23)C[C@H](C2=Nc3cccc(N4CCC5(CCNC5)C4)c3CN2)O1 (stereo partly drawn) [Example 13, 5-[(2R,6R)-2-[5-(2,7-diazaspiro[4.4]nonan-2-yl)-3,4-dihydroquinazolin-2-yl]-6-methyl-morpholin-4-yl]quinoline-8-carbonitrile]	0.313 µM
C[C@@H]1CN(c2ccc(C#N)c3ncccc23)C[C@H](C2=Nc3cccc(C4=CCNCC4)c3CCN2)O1 [Example 16, 5-[(2R,6R)-2-methyl-6-[6-(1,2,3,6-tetrahydropyridin-4-yl)-4,5-dihydro-3H-1,3-benzodiazepin-2-yl]morpholin-4-yl]quinoline-8-carbonitrile]	0.064 µM
C[C@@H]1CN(c2ccc(C#N)c3ncccc23)C[C@H](C2=Nc3cccc(C4CCNCC4)c3CN2)O1 [Example 18, 5-[(2R,6R)-2-methyl-6-[5-(4-piperidyl)-3,4-dihydroquinazolin-2-yl]morpholin-4-yl]quinoline-8-carbonitrile]	0.09 µM

Compounds with a lower IC50, results first:

IC50	SMILES
0.05 µM	C[C@@H]1CN(c2ccc(C#N)c3ncccc23)C[C@H](C2=Nc3cccc(N4CCNCC4)c3CN2)O1 [Example 6, 5-[(2R,6R)-2-methyl-6-(5-piperazin-1-yl-3,4-dihydroquinazolin-2-yl)morpholin-4-yl]quinoline-8-carbonitrile]
0.042 µM	C[C@@H]1CN(c2ccc(C#N)c3ncccc23)C[C@H](C2=Nc3cccc(N4CCN(C)CC4)c3CN2)O1 [Example 12, 5-[(2R,6R)-2-methyl-6-[5-(4-methylpiperazin-1-yl)-3,4-dihydroquinazolin-2-yl]morpholin-4-yl]quinoline-8-carbonitrile]
0.049 µM	C[C@@H]1CN(c2ccc(C#N)c3ncccc23)C[C@H](C2=Nc3ccc(N4CCNCC4)cc3CCN2)O1 [Example 17, 5-[(2R,6R)-2-methyl-6-(7-piperazin-1-yl-4,5-dihydro-3H-1,3-benzodiazepin-2-yl)morpholin-4-yl]quinoline-8-carbonitrile]
